Values of other authors, collected in patent US20180008675A1, “USE OF URODILATING FOR PREPARING A MEDICAMENT FOR TREATMENT OF CARDIOVASCULAR, RENAL, PULMONARY, AND NEURONAL SYNDROMES WHILE AVOIDING A REBOUND” (CARDIORENTIS AG, priority 2010, published 2018).

Legend:
[1] = tested on: patients with chronic congestive heart failure; settings: 10-hour infusion, 15 ng/kg/min
[2] = tested on: patients with chronic congestive heart failure / acute decompensated heart failure
dogs = dogs (Riegger et al., 1990)

urodilatin
central venous pressure (CVP) ([1]; NYHA III chronic congestive heart failure (Eisner et al., 1995)): increases slightly already after 5 hours of infusion
urine flow ([1]; chronic congestive heart failure (Eisner et al., 1995)): loss of action after 8 hours of infusion
changes of the cardiac index (CI) ([2]; 15 and 30 ng/kg/min (Mitrovic et al., 2006)): significant increase
changes of the baseline in pulmonary capillary wedge pressure (PCWP) ([2]; 15 and 30 ng/kg/min, compared with the placebo group (Mitrovic et al., 2006)): significant reductions
pulmonary capillary wedge pressure (PCWP), loss of effect during infusion ([2]; after 6 to 8 hours of infusion (Mitrovic et al., 2006, FIG. 2A)): slight increase of PCWP
cardiac index (CI), loss of effect during infusion ([2]; after 6 to 8 hours of infusion (Mitrovic et al., 2006, FIG. 2C)): partial drop of CI
symptoms, morbidity and mortality ([2]; all doses, acute decompensated heart failure (Mitrovic et al., 2005 and 2006)): significantly improved
effect compared to other natriuretic peptides, such as ANP (dogs): better effect in dogs
